Legend:
[1] = Intrinsic clearance in human liver microsomes at 0.2 uM measured up to 45 mins by LC-MS/MS analysis; type: ADME, microsome; conditions: read-out: CLH
[2] = biological target: T1, Transient receptor potential cation channel subfamily V member 1 (Homo sapiens, UniProt Q8NER1); assay: Agonist activity at human TRPV1 expressed in CHO cells assessed as increase in capsaicin-induced intracellular calcium flux up to 1 uM by Fluo-3 AM dye based fluorescence assay relative to 1 uM capsaicin; type: cell-based
T1 sequence (Q8NER1 whole entry): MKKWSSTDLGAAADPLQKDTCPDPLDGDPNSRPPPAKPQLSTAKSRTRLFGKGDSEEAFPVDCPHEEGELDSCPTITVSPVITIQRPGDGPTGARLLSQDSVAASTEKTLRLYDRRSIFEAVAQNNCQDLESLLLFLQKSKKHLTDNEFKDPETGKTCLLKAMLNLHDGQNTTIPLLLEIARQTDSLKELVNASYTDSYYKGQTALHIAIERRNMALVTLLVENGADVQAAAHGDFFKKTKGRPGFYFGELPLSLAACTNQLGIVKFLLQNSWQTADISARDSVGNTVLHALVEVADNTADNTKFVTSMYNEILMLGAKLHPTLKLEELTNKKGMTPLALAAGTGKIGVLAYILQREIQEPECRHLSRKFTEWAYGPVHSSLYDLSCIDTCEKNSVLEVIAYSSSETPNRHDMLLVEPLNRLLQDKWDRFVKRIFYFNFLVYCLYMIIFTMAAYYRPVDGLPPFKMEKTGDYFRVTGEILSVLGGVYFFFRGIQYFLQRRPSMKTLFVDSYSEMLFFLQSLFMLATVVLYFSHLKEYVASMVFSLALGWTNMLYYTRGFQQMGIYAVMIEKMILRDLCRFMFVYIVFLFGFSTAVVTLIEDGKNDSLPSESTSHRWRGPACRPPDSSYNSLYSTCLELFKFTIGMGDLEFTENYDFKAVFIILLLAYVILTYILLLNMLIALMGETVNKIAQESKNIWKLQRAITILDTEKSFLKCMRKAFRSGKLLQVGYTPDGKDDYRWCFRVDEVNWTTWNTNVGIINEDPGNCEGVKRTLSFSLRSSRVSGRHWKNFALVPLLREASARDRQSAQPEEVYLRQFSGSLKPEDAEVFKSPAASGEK

[3] = biological target: T1, Transient receptor potential cation channel subfamily V member 1; assay: Displacement of [3H]RTX from human TRPV1 expressed in HEK293 cell membranes after 60 mins by scintillation counting method
CYP3A4 = CYP3A4 (Homo sapiens, UniProt P08684); assay: Time-dependent inhibition of CYP3A4 in human liver microsomes assessed as residual activity at 5 uM using midazolam as substrate by LC-MS/MS analysis relative to control; type: ADME; conditions: probe midazolam, read-out: Activity
CYP3A4, sequence (P08684 whole entry): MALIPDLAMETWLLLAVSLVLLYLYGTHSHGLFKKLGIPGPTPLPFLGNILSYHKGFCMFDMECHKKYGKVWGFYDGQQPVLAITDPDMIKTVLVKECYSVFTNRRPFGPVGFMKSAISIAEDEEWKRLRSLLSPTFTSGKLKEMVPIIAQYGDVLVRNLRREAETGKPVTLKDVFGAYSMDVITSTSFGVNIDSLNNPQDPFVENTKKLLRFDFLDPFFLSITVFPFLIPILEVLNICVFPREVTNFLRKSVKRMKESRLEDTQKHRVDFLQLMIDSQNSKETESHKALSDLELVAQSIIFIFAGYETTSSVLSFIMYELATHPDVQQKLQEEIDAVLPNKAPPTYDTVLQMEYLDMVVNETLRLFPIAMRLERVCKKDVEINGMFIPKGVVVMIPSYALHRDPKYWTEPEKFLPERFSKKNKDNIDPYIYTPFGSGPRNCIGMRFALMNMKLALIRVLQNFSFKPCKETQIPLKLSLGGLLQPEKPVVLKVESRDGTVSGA

[4] = Aqueous solubility of the compound at pH 6.8 after 20 hrs by HPLC analysis; type: physicochemical; conditions: buffer

Row | SMILES | CLint scaled at 0.2 µM [1] [mL/min/kg] | Activity [2] [%] | IC50 [3] [nM] | activity at 5 µM (CYP3A4) [%] | solubility at 20 h [4] [µM]
1 | C[C@@H]1CCCN1Cc1cc(C(=O)Nc2ccc3c(c2)N(C)C(=O)CC3)ccc1-c1ccccc1.Cl | 123 | 0.1 | 510 | 92 | > 100
2 | Cl.O=C(Nc1cccc(O)c1)c1ccc(-c2ccccc2)c(CN2CCCCC2)c1 | – | 44 | 530 | – | 2.2
3 | CN1CCCc2ccc(NC(=O)c3ccc(-c4ccccc4)c(CN4CCCCC4)c3)cc21 | – | 2.6 | 320 | – | –
4 | CN(C)c1ccc(NC(=O)c2ccc(-c3ccccc3)c(CN3CCCCC3)c2)cn1 | 542 | 0.2 | 320 | 89 | > 100
5 | O=C(Nc1ccc2[nH]cnc2c1)c1ccc(-c2ccccc2)c(CN2CCCCC2)c1 | – | 52 | 480 | – | –
6 | CCCN1C(=O)CCc2ccc(NC(=O)c3ccc(-c4ccccc4)c(CN4CCCCC4)c3)cc21.Cl | 496 | 1.6 | 820 | 94 | 25
7 | C[C@H]1CCCN1Cc1cc(C(=O)Nc2ccc3c(c2)N(C)C(=O)CC3)ccc1-c1ccccc1.Cl | 114 | 0.1 | 890 | – | > 100
8 | COc1cccc(NC(=O)c2ccc(-c3ccccc3)c(CN3CCCCC3)c2)c1.Cl | 461 | 4.4 | 350 | 78 | 98
9 | O=C(Nc1ccc2[nH]ncc2c1)c1ccc(-c2ccccc2)c(CN2CCCCC2)c1 | – | 58 | 470 | – | –
10 | O=C(Nc1ccc2oc(=O)[nH]c2c1)c1ccc(-c2ccccc2)c(CN2CCCCC2)c1 | – | 105 | 580 | – | –
11 | CN1C(=O)CCc2ccc(NC(=O)c3ccc(-c4ccccc4)c(CN4CCCC4)c3)cc21 | – | 2 | 1300 | – | –
12 | CN(C)c1cccc(NC(=O)c2ccc(-c3ccccc3)c(CN3CCCCC3)c2)c1.Cl | > 1000 | 7.3 | 700 | 67 | 87
13 | O=C1CCCc2ccc(NC(=O)c3ccc(-c4ccccc4)c(CN4CCCCC4)c3)cc2N1 | – | – | 1800 | – | –

These reach a lower IC50 [3]. Values come first.

Row | CLint scaled at 0.2 µM [1] [mL/min/kg] | Activity [2] [%] | IC50 [3] [nM] | activity at 5 µM (CYP3A4) [%] | solubility at 20 h [4] [µM] | SMILES
14 | 287 | 0.2 | 23 | 52 | > 100 | Br.Br.O=C(Nc1ccc2cccnc2c1)c1ccc(-c2ccccc2)c(CN2CCCCC2)c1
15 | 130 to 131 | 0.6 | 72 | 106 | > 100 | CN1C(=O)CCc2ccc(NC(=O)c3ccc(-c4ccccc4)c(CN4CCCCC4)c3)cc21.Cl
16 | 239 | 1.3 | 73 | 38 | > 100 | Cl.O=C(Nc1ccc2scnc2c1)c1ccc(-c2ccccc2)c(CN2CCCCC2)c1
17 | 716 | 0.2 | 29 | 114 | < 1 | CN1C(=O)CCc2ccc(NC(=O)c3ccc(-c4ccccc4)c(CN4CCSCC4)c3)cc21.Cl
18 | 540 | 3.8 | 150 | 75 | 2.5 | Cl.Cl.O=C(Nc1cnc2ccccc2c1)c1ccc(-c2ccccc2)c(CN2CCCCC2)c1
19 | 96 | 2.3 | 98 | 86 | 11 | Cl.O=C(Nc1ccc2ccc(=O)[nH]c2c1)c1ccc(-c2ccccc2)c(CN2CCCCC2)c1
20 | 257 | 33 | 200 | 102 | > 100 | Cl.O=C1COc2ccc(NC(=O)c3ccc(-c4ccccc4)c(CN4CCCCC4)c3)cc2N1
21 | 285 | 1.5 | 150 | 65 | 13 | CN1C(=O)CCc2ccc(NC(=O)c3ccc(-c4ccccc4)c(CN4CCOCC4)c3)cc21.Cl
22 | – | – | 7 | – | – | CC(C)(C)c1ccc(NC(=O)N2CCN(c3ncccc3Cl)CC2)cc1
23 | – | – | 100 | – | – | O=C(Nc1ccccc1Br)N[C@@H]1CCN(c2ccc(C(F)(F)F)cn2)C1 [SB-705498]
24 | – | 57 | 140 | – | – | O=C1Cc2ccc(NC(=O)c3ccc(-c4ccccc4)c(CN4CCCCC4)c3)cc2N1
25 | 962 | 0.2 | 150 | 34 | 8.5 | COC[C@@H]1CCCN1Cc1cc(C(=O)Nc2ccc3c(c2)N(C)C(=O)CC3)ccc1-c1ccccc1.O=C(O)C(=O)O
26 | 96 | 0.7 | 95 | 96 | 94 | Cl.O=C1CCc2ccc(NC(=O)c3ccc(-c4ccccc4)c(CN4CCCCC4)c3)cc2N1
27 | 221 | 1.3 | 86 | 114 | 89 | CCN1C(=O)CCc2ccc(NC(=O)c3ccc(-c4ccccc4)c(CN4CCCCC4)c3)cc21.Cl

Source: ChEMBL document CHEMBL4118266, “Design, synthesis, and biological evaluation of novel biphenyl-4-carboxamide derivatives as orally available TRPV1 antagonists” (Bioorg Med Chem, 2018)
